According to US20170307640A1, “METHODS, KITS AND DEVICES FOR DETECTING BII-SPECTRIN, AND BREAKDOWN PRODUCTS THEREOF, AS BIOMARKERS FOR THE DIAGNOSIS OF NEURAL INJURY” (BANYAN BIOMARKERS, INC., priority 2012, published 2017):
Entries after “also recorded” stand apart in the source; their conditions may differ.

B1: Calpain: purified protease human calpain-2 (BD Bioscience; Catalogue no. 208715) (protein, UniProt P17655 20-700, looked up)
Calpain-2 catalytic subunit: SHDRAIKYLNQDYEALRNECLEAGTLFQDPSFPAIPSALGFKELGPYSSKTRGIEWKRPTEICADPQFIIGGATRTDICQGALGDCWLLAAIASLTLNEEILARVVPLNQSFQENYAGIFHFQFWQYGEWVEVVVDDRLPTKDGELLFVHSAEGSEFWSALLEKAYAKINGCYEALSGGATTEGFEDFTGGIAEWYELKKPPPNLFKIIQKALQKGSLLGCSIDITSAADSEAITFQKLVKGHAYSVTGAEEVESNGSLQKLIRIRNPWGEVEWTGRWNDNCPSWNTIDPEERERLTRRHEDGEFWMSFSDFLRHYSRLEICNLTPDTLTSDTYKKWKLTKMDGNWRRGSTAGGCRNYPNTFWMNPQYLIKLEEEDEDEEDGESGCTFLVGLIQKHRRRQRKMGEDMHTIGFGIYEVPEELSGQTNIHLSKNFFLTNRARERSDTFINLREVLNRFKLPPGEYILVPSTFEPNKDGDFCIRVFSEKKADYQAVDDEIEANLEEFDISEDDIDDGFRRLFAQLAGEDAEISAFELQTILRRVLAKRQDIKSDGFSIETCKIMVDMLDSDGSGKLGLKEFYILWTKIQKYQKIYREIDVDRSGTMNSYEMRKALEEAGFKMPCQLHQVIVARFADDQLIIDFDNFVRCLVRLETLFKIFKQLDPENTGTIELDLISWLCFSVL

Assays:
βII-spectrin [1] = experiment: Effects of calpain and caspase-3 inhibitors on βII-SBDP pattern in challenged cerebrocortical cultures (Western blot); assay type: cell-based, rat; details: for βII-SBDP bands after MTX challenge with inhibitor: 0.5 nM MTX 3 hrs + 20 μM IDN-6556 or 30 μM SNJ-1945; for βII-SBDP bands after NMDA challenge with inhibitor: 300 μM NMDA + 20 μM IDN-6556 or 30 μM SNJ-1945; for βII-SBDP bands after EDTA challenge with inhibitor: EDTA + 20 μM IDN-6556 or 30 μM SNJ-1945, pretreated 1 hr
Method: (§1) All cultures are prepared in quadruplicate. Cerebrocortical cells harvested from 1-day old Sprague-Dawley rat brains are plated on poly-L-lysine coated 6-well culture plates (Erie Scientific, Portsmouth, N.H., USA) according to a previously cited method (Nath et al., 2000) at a density of 4.36×10^5 cells/mL. Cultures are maintained in Dulbecco's modified Eagle's medium (DMEM) with 10% fetal bovine serum in a humidified incubator in an atmosphere of 10% CO2 at 37° C. After 5 days in culture, the media is changed to DMEM with 5% horse serum. Subsequent media changes are performed three times a week. Experiments are performed on days 10 to 11 in vitro when astroglia have formed a confluent monolayer beneath morphologically mature neurons. All animal studies conform to the guidelines outlined in the Guide for the Care and Use of Laboratory Animals from the National Institutes of Health and were approved by the local IACUC.
(§2) Cells are collected and lysed with the same lysis buffer as described above.
(§3) The neuronal lysates are then centrifuged at 15000 g for 5 min at 4° C. to clear and remove insoluble debris, snap-frozen, and stored at −85° C. until use.
(§4) Protein concentrations of culture lysates are determined by bicinchoninic acid microprotein assays (Pierce Inc, Rockford, Ill., USA) with albumin standards. Protein balanced samples are prepared for sodium dodecyl sulfate-polyacrylamide gel electrophoresis (SDS-PAGE) in […] loading buffer containing 0.25 M Tris (pH 6.8), 0.2 M DTT, 8% SDS, 0.02% bromophenol blue, and 20% glycerol in distilled H2O. Twenty micrograms (20 μg) of protein per lane are routinely resolved by SDS-PAGE on 6% Tris/glycine gels (for spectrin protein) and/or 10-20% Tris/glycine gels for 2 hr at 120 V. Following electrophoresis, separated proteins are laterally transferred to polyvinylidene fluoride (PVDF) membranes in a transfer buffer containing 0.50 M glycine, 0.025 M Tris-HC1 (pH 8.3) and 10% methanol at a constant voltage of 20 V for 2 hr at 4° C. in a semi-dry transfer unit (Bio-Rad, Hercules, Calif.).
(§5) Tissue samples (20 μg) are subjected to electrophoresis, equal volumes of samples for SDS/PAGE are prepared in a 2×-fold loading buffer [0.25 M Tris (pH 6.8), 0.2 M DTT, 8% SDS, 0.02% bromophenol blue and 20% glycerol in distilled H2O]. Gels are run at 120 V for 2 hr in a mini-gel unit (Invitrogen Life). Protein bands are transferred to PVDF membrane on a semi-dry Trans-blot unit (Bio-Rad, Hercules, Calif.) at 20 V for 2 hrs. After electrotransfer, blotting membranes are blocked for 1 hr at ambient temperature in 5% non-fat milk in TBST [20 mM Tris/HCl (pH 7.4), 150 mM NaCl and 0.05% (w/v) Tween-20], then incubated with the primary monoclonal antibody in TBST/5% milk. Primary antibodies to be used include mouse anti all-spectrin (Affinity Res. Prod. Nottingham, UK), mouse monoclonal anti βII-spectrin (BD Transduction Laboratories, USA; cat # 612563) and rabbit anti βIII-spectrin (BETHYL Laboratories, Inc. TX, cat # A310-367A). The blots are then washed 3 times for 15 min with TBST and exposed to biotinylated secondary antibodies (Amersham Biosciences, U.K.) followed by a 30 min incubation with streptavidin-conjugated alkaline phosphatase. Colorimetric development is performed with a one-step 5-bromo-4-chloro-3-indolyl phosphate-reagent (Sigma-Aldrich, St. Louis, Mo.). The molecular weights of intact proteins and their potential BDPs are assessed by running along-side rainbow colored molecular weight standards (Amersham Biosciences, U.K.)
(§6) Rat cerebrocortical cell cultures are prepared as described above and treated with calpain inhibitor SNJ-1945 and caspase-3 inhibitor IDN-6556 along with different neurotoxic paradigms (FIG. 3).

αII-spectrin = αII-spectrin breakdown pattern in challenged cerebrocortical cultures with or without inhibitors (Western blot); assay type: cell-based, rat; details: for αII-spectrin fragments (SBDP-150/SBDP-145, SBDP-120) after NMDA challenge with respective protease inhibitor: 300 μM NMDA + 30 μM SNJ-1945 or 20 μM IDN-6556; for αII-spectrin breakdown products after neurotoxin challenge alone: EDTA, MTX or NMDA alone
Method: as §1, §2, §3, §4, §5, §6

[2] = system: rat cerebrocortical cultures; experiment: Neurotoxin challenges of primary cerebrocortical cultures: morphology and βII-spectrin breakdown by Western blot; assay type: cell-based; details: for degeneration in soma and neurites of neuronal cultures under microscope: MTX at 3 hours, STS, EDTA, NMDA at 24 hours, vs untreated control; for βII-SBDP bands after neurotoxin challenge alone (Western blot): NMDA 300 μM, STS 0.5 μM, EDTA 2 mM, MTX 0.5 nM 3 hrs, no inhibitor
Method: as §1, §2, §3, §4, §5
Alternatively, neuronal cultures are treated with staurosporine (STS) for 24 hours or with NMDA. (FIG. 2)

βII-spectrin [3] = experiment: βII-spectrin proteolytic fragmentation after brain cortex lysate digestion with calpain-2 and caspase-3; assay type: biochemical, rat
Method: as §5, with “Colorimetric development is performed with a one-step 5-bromo-4-chloro-3-indolyl phosphate-reagent (Sigma-Aldrich, St. Louis, Mo.).” left out

Row | Molecule | βII-SBDP bands after MTX challenge with inhibitor (βII-spectrin [1]) | βII-SBDP bands after NMDA challenge with inhibitor (βII-spectrin [1]) | βII-SBDP bands after EDTA challenge with inhibitor (βII-spectrin [1]) | αII-spectrin fragments (SBDP-150/SBDP-145, SBDP-120) after NMDA challenge with respective protease inhibitor (αII-spectrin) | degeneration in soma and neurites of neuronal cultures under microscope [2] | βII-SBDP bands after neurotoxin challenge alone (Western blot) [2] | αII-spectrin breakdown products after neurotoxin challenge alone (αII-spectrin) | other results
1 | C[C@H](NC(=O)C(=O)Nc1ccccc1C(C)(C)C)C(=O)N[C@@H](CC(=O)O)C(=O)COc1c(F)c(F)cc(F)c1F [IDN-6556] | βII-SBDPs of 110 kDa and 85 kDa are observed | much weaker | no βII-SBDPs | strongly inhibited | – | – | – | αII-spectrin caspase-mediated SBDP-120 after EDTA challenge with inhibitor (αII-spectrin; EDTA + IDN-6556): absence
2 | C=CC[C@H](C)[C@H](C)C[C@@H](O)[C@H](O)[C@@H]1CC[C@@]2(C)O[C@@]3(C)C[C@@]4(C)O[C@H]5/C=C\C[C@H]6O[C@H]7C[C@H]8O[C@H]9C[C@@]%10(C)O[C@@](C)([C@@H]%11CC[C@H]%12O[C@@]%13(C)C[C@H]%14O[C@@]%15(C)C[C@H]%16O[C@@]%17(C)C[C@@H](O)[C@H]([C@@H]%18O[C@H]%19[C@H](O)[C@@H](O)[C@H](C[C@H](O)C[C@@H](O)[C@@H]%20O[C@H]%21[C@H](O)[C@@H](O)[C@H]([C@@H]%22O[C@@H]%23[C@H](O)[C@H]%24O[C@H]%25C[C@H]%26O[C@@H](C[C@H](O)[C@@H](O)[C@H]%27O[C@H]%28[C@H](O)[C@H]%29O[C@H]%30C[C@H]%31O[C@H]%32[C@@H](O)[C@@H](O)[C@H]([C@H](C)[C@H](O)[C@H](C)CC[C@H](OS(=O)(=O)O)[C@H](O)[C@H](C)C[C@@H](O)C(=C)/C(C)=C/CO)O[C@@H]%32[C@H](O)C[C@]%31(C)O[C@@H]%30C[C@]%29(C)O[C@@H]%28C[C@H]%27O)[C@H](OS(=O)(=O)O)[C@H](O)[C@@H]%26O[C@@H]%25C[C@@H]%24O[C@H]%23[C@H](O)[C@H]%22O)O[C@H]%21C[C@H]%20O)O[C@H]%19C[C@H]%18O)O[C@@H]%17[C@H](O)[C@]%16(C)O[C@@H]%15CC[C@]%14(C)O[C@@H]%13C[C@@H]%12O%11)[C@H](O)C[C@@H]%10O[C@]9(C)CC[C@]8(C)O[C@]7(C)C[C@@H]6O[C@@H]5C[C@@H]4O[C@@H]3C[C@@H]2O1 [MTX, maitotoxin] | – | – | – | – | significant degeneration | strong βII-SBDPs of 110 kDa and 85 kDa bands; also recorded: βII-SBDPs of 110 kDa and 85 kDa are observed | presence of the prominent calpain-mediated SBDP-145 kDa band | βII-SBDPs generated by EDTA and MTX treatments used as controls for apoptotic and necrotic injury (βII-spectrin [3]; brain lysates treated with MTX and EDTA, comparators in FIG. 8): 110/85
3 | CN[C@H](CC(=O)O)C(=O)O [NMDA, N-methyl-D-aspartate] | – | – | – | – | significant degeneration | dominant signal of calpain-mediated βII-spectrin breakdown product (βII-SBDP) of 110 kDa and 85 kDa, with minimal caspase mediated βII-SBDP of 108 kDa and 80 kDa; also recorded: presence of all the βII-SBDPs (110, 108, 85 and 80 kDa) | prominent calpain-mediated SBDP-150/SBDP-145, with minor bands of caspase-3-mediated SBDP-120 | –
4 | COCCOCCOC(=O)N[C@@H](CC(C)C)C(=O)N[C@@H](Cc1ccccc1)C(=O)C(=O)NC1CC1 [SNJ-1945] | no βII-SBDPs observed | only βII-SBDP-108 kDa band | strong βII-SBDP 108 kDa/weak 80 kDa bands | strongly inhibited | – | – | – | αII-spectrin calpain-mediated SBDP-145 after MTX challenge with inhibitor (αII-spectrin; MTX + SNJ-1945): absence
5 | CN[C@@H]1C[C@H]2O[C@@](C)([C@@H]1OC)n1c3ccccc3c3c4c(c5c6ccccc6n2c5c31)C(=O)NC4 [STS, staurosporine] | – | – | – | – | significant degeneration | two prominent βII-SBDP bands of 108 kDa and 80 kDa | – | –
6 | B1 | – | – | – | – | – | – | – | βII-SBDPs generated by in vitro protease digestion of cortical tissue lysate (βII-spectrin [3]; intact 260 kDa βII-spectrin, calpain-2 25° C. 30 min, caspase-3 37° C. 4 hrs): prominent 110 and 85 kDa βII-SBDPs in addition to a number of non-specific high molecular bands
